± gives the expanded uncertainty stated by the source.
Assays:
[1] = refractive index (Na D-line) (dimensionless); xn = mol fraction of the nth substance listed; details: 101 kPa, Liquid, Standard Abbe refractometry
[2] = xn = mol fraction of the nth substance listed; details: 101 kPa, Liquid
[3] = 101 kPa, Liquid
[4] = refractive index (Na D-line) (dimensionless); details: 101.33 kPa, Liquid, Standard Abbe refractometry

CCCCl [1-chloropropane] + C1COCCO1
Details	mass density, [2] [kg/m3]	refractive index, [1]
298.15 K, x2 = 0	884.26 ± 0.77	1.3856 ± 0.0007
298.15 K, x2 = 0.1027	898.64 ± 0.7	1.38919 ± 0.0007
298.15 K, x2 = 0.2077	913.41 ± 0.63	1.39281 ± 0.00069
298.15 K, x2 = 0.3029	926.89 ± 0.57	1.39609 ± 0.00069
298.15 K, x2 = 0.4034	941.19 ± 0.5	1.39957 ± 0.00069
298.15 K, x2 = 0.506	955.87 ± 0.44	1.40308 ± 0.00062
298.15 K, x2 = 0.6062	970.28 ± 0.38	1.40651 ± 0.00068
298.15 K, x2 = 0.706	984.73 ± 0.32	1.4099 ± 0.00068
298.15 K, x2 = 0.8081	999.6 ± 0.27	1.41336 ± 0.00068
298.15 K, x2 = 0.9059	1013.96 ± 0.3	1.41673 ± 0.00068
298.15 K, x2 = 0.9486	1020.26 ± 0.32	1.41818 ± 0.00068
313.15 K, x2 = 0	865.14 ± 0.82	1.37673 ± 0.0007
313.15 K, x2 = 0.1009	879.74 ± 0.75	1.38047 ± 0.00069
313.15 K, x2 = 0.2026	894.27 ± 0.69	1.38432 ± 0.00069
313.15 K, x2 = 0.3067	909.2 ± 0.62	1.38812 ± 0.00067
313.15 K, x2 = 0.4061	923.53 ± 0.56	1.39169 ± 0.00065
313.15 K, x2 = 0.5056	937.97 ± 0.49	1.39523 ± 0.00062
313.15 K, x2 = 0.6044	952.38 ± 0.44	1.39872 ± 0.00064
313.15 K, x2 = 0.7114	968.04 ± 0.37	1.40252 ± 0.00064
313.15 K, x2 = 0.8026	981.42 ± 0.32	1.40576 ± 0.00063
313.15 K, x2 = 0.9011	995.98 ± 0.27	1.40922 ± 0.00062
313.15 K, x2 = 0.951	1003.38 ± 0.27	1.41097 ± 0.00059

CC(C)(C)Cl [2-chloro-2-methylpropane]
Details	mass density, [3] [kg/m3]	refractive index, [4]
298.15 K	836.45 ± 0.9	1.38224 ± 0.00071
313.15 K	818.31 ± 0.95	1.37314 ± 0.00071

CC(C)(C)Cl [2-chloro-2-methylpropane] + C1COCCO1
Details	mass density, [2] [kg/m3]	refractive index, [1]
298.15 K, x2 = 0	836.45 ± 0.9	1.38224 ± 0.00071
298.15 K, x2 = 0.0458	844.01 ± 0.87	1.38393 ± 0.0007
298.15 K, x2 = 0.1594	862.91 ± 0.79	1.38814 ± 0.0007
298.15 K, x2 = 0.2576	879.78 ± 0.72	1.39182 ± 0.00069
298.15 K, x2 = 0.3925	904.15 ± 0.62	1.39689 ± 0.00069
298.15 K, x2 = 0.4632	917.47 ± 0.56	1.39956 ± 0.00068
298.15 K, x2 = 0.5569	935.61 ± 0.49	1.40312 ± 0.00068
298.15 K, x2 = 0.6611	956.29 ± 0.42	1.40709 ± 0.00068
298.15 K, x2 = 0.7458	973.39 ± 0.35	1.41033 ± 0.00068
298.15 K, x2 = 0.8395	992.69 ± 0.29	1.4139 ± 0.00068
298.15 K, x2 = 0.9222	1010.32 ± 0.29	1.41703 ± 0.00068
298.15 K, x2 = 0.9639	1019.57 ± 0.32	1.41861 ± 0.00068
313.15 K, x2 = 0	818.31 ± 0.95	1.37314 ± 0.00071
313.15 K, x2 = 0.0485	826.29 ± 0.92	1.37502 ± 0.00071
313.15 K, x2 = 0.0903	833.3 ± 0.89	1.37667 ± 0.00071
313.15 K, x2 = 0.2192	855.58 ± 0.79	1.38175 ± 0.0007
313.15 K, x2 = 0.2827	866.86 ± 0.75	1.38423 ± 0.00071
313.15 K, x2 = 0.3966	887.59 ± 0.67	1.3888 ± 0.0007
313.15 K, x2 = 0.5029	907.54 ± 0.59	1.39301 ± 0.00069
313.15 K, x2 = 0.6039	927.14 ± 0.51	1.39702 ± 0.00069
313.15 K, x2 = 0.7025	946.96 ± 0.44	1.40092 ± 0.00068
313.15 K, x2 = 0.8138	970.21 ± 0.36	1.40529 ± 0.00067
313.15 K, x2 = 0.8959	987.89 ± 0.3	1.4085 ± 0.00066
313.15 K, x2 = 0.9612	1002.17 ± 0.26	1.41105 ± 0.0007

CCC(C)Cl (stereo not drawn) [2-chlorobutane]
Details	mass density, [3] [kg/m3]	refractive index, [4]
298.15 K	867.4 ± 0.81	1.39404 ± 0.00067
313.15 K	850.13 ± 0.86	1.38573 ± 0.00067

CCC(C)Cl (stereo not drawn) [2-chlorobutane] + C1COCCO1
Details	mass density, [2] [kg/m3]	refractive index, [1]
298.15 K, x2 = 0	867.4 ± 0.81	1.39404 ± 0.00067
298.15 K, x2 = 0.0417	872.75 ± 0.79	1.3949 ± 0.0007
298.15 K, x2 = 0.1061	881.2 ± 0.75	1.3963 ± 0.0007
298.15 K, x2 = 0.2514	901.2 ± 0.65	1.3996 ± 0.00069
298.15 K, x2 = 0.3493	915.42 ± 0.59	1.40193 ± 0.00069
298.15 K, x2 = 0.4771	934.94 ± 0.51	1.40512 ± 0.00068
298.15 K, x2 = 0.5563	947.61 ± 0.46	1.40721 ± 0.00068
298.15 K, x2 = 0.6462	962.58 ± 0.4	1.40961 ± 0.00068
298.15 K, x2 = 0.7343	977.89 ± 0.34	1.41208 ± 0.00068
298.15 K, x2 = 0.8244	994.21 ± 0.28	1.41466 ± 0.00068
298.15 K, x2 = 0.9112	1010.56 ± 0.29	1.41725 ± 0.00068
298.15 K, x2 = 0.9891	1025.72 ± 0.33	1.41962 ± 0.00068
313.15 K, x2 = 0	850.13 ± 0.86	1.38573 ± 0.00067
313.15 K, x2 = 0.0475	856.2 ± 0.83	1.38674 ± 0.00066
313.15 K, x2 = 0.1318	867.4 ± 0.78	1.38865 ± 0.00067
313.15 K, x2 = 0.239	882.36 ± 0.71	1.3912 ± 0.00067
313.15 K, x2 = 0.3413	897.3 ± 0.65	1.39378 ± 0.00069
313.15 K, x2 = 0.4574	915.03 ± 0.57	1.39683 ± 0.00071
313.15 K, x2 = 0.5546	930.53 ± 0.51	1.39949 ± 0.00073
313.15 K, x2 = 0.6429	945.17 ± 0.45	1.40195 ± 0.00075
313.15 K, x2 = 0.7326	960.65 ± 0.39	1.40449 ± 0.00078
313.15 K, x2 = 0.8209	976.52 ± 0.34	1.40709 ± 0.00082
313.15 K, x2 = 0.9121	993.58 ± 0.28	1.40985 ± 0.00086
313.15 K, x2 = 0.9525	1001.37 ± 0.26	1.41113 ± 0.00093
